Measurements from the supplement of paper PMC4862054.

Columns and labels:
Assay in all cases: normalised response (% of control), CellTox Green; higher = less cell death (100 = DMSO, 0 = benzethonium chloride kill control)
Conditions in all cases: incubation time: 72 h
HCC1143 = system: HCC1143
Method in brief: (§1)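 Each entry is the normalised signal at a single concentration within a series. The series comprised 5 concentrations in 10-fold steps over a compound-specific 10,000-fold range, placed in 384-well plates into which breast cancer cell lines were seeded as 20 µl suspension and incubated 72 h. CellTox Green (485/520 nm) fluorescence and then CellTiter-Glo luminescence were read, with signals normalised per plate to 0.1 % DMSO (100) and a positive kill control (0).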

HCC1599 = system: HCC1599
Method in brief: as §1

HCC1937 = system: HCC1937
Method in brief: as §1

Hs578T = system: Hs578T
Method in brief: as §1

MCF-10A = system: MCF-10A
Method in brief: as §1

MDA-MB-231 = system: MDA-MB-231
Method in brief: as §1

MDA-MB-436 = system: MDA-MB-436
Method in brief: as §1

MDA-MB-453 = system: MDA-MB-453
Method in brief: as §1

MDA-MB-468 = system: MDA-MB-468
Method in brief: as §1

SMILES | normalised response (HCC1143) | normalised response (HCC1599) | normalised response (HCC1937) | normalised response (Hs578T) | normalised response (MCF-10A) | normalised response (MDA-MB-231) | normalised response (MDA-MB-436) | normalised response (MDA-MB-453) | normalised response (MDA-MB-468)
Nc1ccn([C@@H]2O[C@H](CO)[C@@H](O)C2(F)F)c(=O)n1 [Gemcitabine] (1000 nM) | 103% | 86.5% | 108% | 123% | 90.5% | 75.5% | 89.8% | 97.7% | 122%
CC(O)(CS(=O)(=O)c1ccc(F)cc1)C(=O)Nc1ccc(C#N)c(C(F)(F)F)c1 (centres undefined) [Bicalutamide] (1000 nM) | 111% | 101% | 59.6% |  | 105% | 115% | 95.5% | 103% | 137%
Cc1cn(-c2cc(NC(=O)c3ccc(C)c(Nc4nccc(-c5cccnc5)n4)c3)cc(C(F)(F)F)c2)cn1 [Nilotinib] (10000 nM) | 104% | 105% | 93.1% | 64.7% | 98.3% | 84.3% | 108% | 102% | 117%
C/C(=C\c1csc(C)n1)[C@@H]1C[C@@H]2O[C@]2(C)CCC[C@H](C)[C@H](O)[C@@H](C)C(=O)C(C)(C)[C@@H](O)CC(=O)N1 [Ixabepilone] (100 nM) | 102% | 102% |  | 95.5% | 87.7% | 102% | 106% | 107% | 83%
Cc1cc(Nc2nc(N[C@@H](C)c3ncc(F)cn3)ncc2Cl)[nH]n1 [AZD1480] (100 nM) | 58.8% | 93.8% | 100% | 96.6% | 85.5% | 98.9% | 101% | 106% | 128%
C=CCn1c(=O)c2cnc(Nc3ccc(N4CCN(C)CC4)cc3)nc2n1-c1cccc(C(C)(C)O)n1 [MK1775] (10000 nM) | 14.8% | 66.1% | 65.6% | 33.3% | -5.92% | -15.5% | 67.1% | 89.7% | 45%
CC(=O)[C@]1(O)Cc2c(O)c3c(c(O)c2[C@@H](O[C@H]2C[C@H](N)[C@H](O)[C@H](C)O2)C1)C(=O)c1ccccc1C3=O [Idarubicin] (100 nM) | 102% | 101% | 110% | 103% | 112% | 114% | 40.4% | 108% | 49.4%
COc1cc(Nc2c(C#N)cnc3cc(OCCCN4CCN(C)CC4)c(OC)cc23)c(Cl)cc1Cl [Bosutinib] (1000 nM) | 116% | 100% | 110% | 78% | 93.7% | 93.6% | 107% | 114% | 164%
CCNC(=O)CCC/C=C\C[C@@H]1[C@@H](/C=C/[C@@H](O)CCc2ccccc2)[C@H](O)C[C@@H]1O [Bimatoprost] (550 nM) | 105% | 97.1% | 129% | 97.8% | 108% | 88.8% | 67.2% | 99.3% | 69%
CNC(=O)c1ccccc1Sc1ccc2c(/C=C/c3ccccn3)n[nH]c2c1 [Axitinib] (1000 nM) | 51.8% | 118% | 122% | 115% | 97.6% | 121% | 84.9% | 108% | 129%
CC1(C)CCC(c2ccc(Cl)cc2)=C(CN2CCN(c3ccc(C(=O)NS(=O)(=O)c4ccc(N[C@H](CCN5CCOCC5)CSc5ccccc5)c(S(=O)(=O)C(F)(F)F)c4)cc3)CC2)C1 [Navitoclax] (10000 nM) | 113% | 103% | 69.4% | 101% | 60.6% | -60.4% | 64.8% | 86.5% | 24.9%
CNC(=O)c1ccccc1Sc1ccc2c(/C=C/c3ccccn3)n[nH]c2c1 [Axitinib] (10000 nM) | 103% | 118% | 91.2% | 119% | 93.8% | 96.8% | 89% | 111% | 156%
CCNC(=O)c1noc(-c2cc(C(C)C)c(O)cc2O)c1-c1ccc(CN2CCOCC2)cc1 [NVP-AUY922] (100 nM) | 87.9% | 86.9% | 125% | 102% | 57.5% | 46.7% | 67.1% | 96.2% | 31.9%
C/C(=C\c1csc(C)n1)[C@@H]1C[C@@H]2O[C@]2(C)CCC[C@H](C)[C@H](O)[C@@H](C)C(=O)C(C)(C)[C@@H](O)CC(=O)N1 [Ixabepilone] (1000 nM) | 120% | 104% | 92.4% | 115% | 101% | 55% | 103% | 101% | 87.1%
CO[C@@H]1[C@H](N(C)C(=O)c2ccccc2)C[C@H]2O[C@]1(C)n1c3ccccc3c3c4c(c5c6ccccc6n2c5c31)C(=O)NC4 [Midostaurin] (10000 nM) | 91.4% | 81.2% | 91.9% | 21.1% | 93.3% | 60.6% | 83.6% | 91.6% | 0.55%
CO[C@@H]1[C@H](N(C)C(=O)c2ccccc2)C[C@H]2O[C@]1(C)n1c3ccccc3c3c4c(c5c6ccccc6n2c5c31)C(=O)NC4 [Midostaurin] (1000 nM) | 63.8% | 74% | 52.8% | 64.2% | 93.8% | 61.2% | 77.3% | 107% | -9.58%
Cc1cc(Nc2nc(N[C@@H](C)c3ncc(F)cn3)ncc2Cl)[nH]n1 [AZD1480] (1000 nM) | 97.3% | 99.3% | 69.3% | 71.7% | 98.9% | 76.7% | 105% | 105% | 84.2%

SMILES | normalised response (HCC1143) | normalised response (HCC1599) | normalised response (HCC1937) | normalised response (Hs578T) | normalised response (MCF-10A) | normalised response (MDA-MB-231) | normalised response (MDA-MB-436) | normalised response (MDA-MB-453) | normalised response (MDA-MB-468)
CCNC(=O)c1noc(-c2cc(C(C)C)c(O)cc2O)c1-c1ccc(CN2CCOCC2)cc1 [NVP-AUY922] (1000 nM) | 74.2% | 97.9% | 48.9% | -31.9% | 39.3% | 52.9% | 107% | 89% | 112%
CO[C@@]12[C@H](COC(N)=O)C3=C(C(=O)C(C)=C(N)C3=O)N1C[C@@H]1N[C@@H]12 [Mitomycin C] (1000 nM) | 104% | 98.1% | 111% | 90.8% | 90.1% | 97.1% | 78.8% | 100% | 
Cn1cc(C2=C(c3cn(C4CCN(Cc5ccccn5)CC4)c4ccccc34)C(=O)NC2=O)c2ccccc21 [Enzastaurin] (1000 nM) | 105% | 102% |  | 97.7% | 109% | 76.6% | 89.4% | 107% | 112%
COc1ccc(S(=O)(=O)Nc2cccnc2Nc2ccc(O)cc2)cc1 [ABT-751] (1000 nM) | 98.9% | 87.8% | -57.9% | 78.8% | 81.3% | 53.4% | 57.2% | 102% | -16.6%
CC(=O)[C@]1(O)Cc2c(O)c3c(c(O)c2[C@@H](O[C@H]2C[C@H](N)[C@H](O)[C@H](C)O2)C1)C(=O)c1ccccc1C3=O [Idarubicin] (1000 nM) | 110% | 109% | 113% | 84% | 34.9% | 77.7% | 83.7% | 106% | 18.9%
CCNC(=O)CCC/C=C\C[C@@H]1[C@@H](/C=C/[C@@H](O)CCc2ccccc2)[C@H](O)C[C@@H]1O [Bimatoprost] (5500 nM) | 117% | 102% | 104% | 61.1% | 86.9% | 110% | 77% | 98% | 
CC(C)(C)NC(=O)[C@H]1CC[C@H]2[C@@H]3CC[C@H]4NC(=O)C=C[C@]4(C)[C@H]3CC[C@]12C [Finasteride] (10000 nM) | 81.5% | 97.7% | 77.4% |  | 94.1% | 113% | 101% | 85.4% | 174%
CC(C)C[C@H](NC(=O)[C@@H](COC(C)(C)C)NC(=O)[C@H](Cc1ccc(O)cc1)NC(=O)[C@H](CO)NC(=O)[C@H](Cc1c[nH]c2ccccc12)NC(=O)[C@H](Cc1cnc[nH]1)NC(=O)[C@@H]1CCC(=O)N1)C(=O)N[C@@H](CCCNC(=N)N)C(=O)N1CCC[C@H]1C(=O)NNC(N)=O [Goserelin] (10000 nM) |  | 95.5% | 88% |  | 75.6% | 94.9% | 90.3% | 95% | 181%
CC(C)(C)NC(=O)[C@H]1CC[C@H]2[C@@H]3CC[C@H]4NC(=O)C=C[C@]4(C)[C@H]3CC[C@]12C [Finasteride] (1000 nM) | 96.8% | 100% | 116% | 107% | 91.2% | 107% | 102% | 105% | 145%
C=CCn1c(=O)c2cnc(Nc3ccc(N4CCN(C)CC4)cc3)nc2n1-c1cccc(C(C)(C)O)n1 [MK1775] (1000 nM) | 103% | 67.4% | 103% | 71.9% | 64.5% | -98.4% | 29.9% | 93.3% | 56.5%
CO[C@@]12[C@H](COC(N)=O)C3=C(C(=O)C(C)=C(N)C3=O)N1C[C@@H]1N[C@@H]12 [Mitomycin C] (10000 nM) | 36.6% | 99.1% | 108% | 77.6% | 85.4% | 101% | 90.2% | 104% | 5.66%
COc1cc(Nc2c(C#N)cnc3cc(OCCCN4CCN(C)CC4)c(OC)cc23)c(Cl)cc1Cl [Bosutinib] (10000 nM) | 99.6% | 62% | 32.9% | 72.5% | -50.5% | -62.9% | 25.9% | 34.6% | -35%
CC1(C)CCC(c2ccc(Cl)cc2)=C(CN2CCN(c3ccc(C(=O)NS(=O)(=O)c4ccc(N[C@H](CCN5CCOCC5)CSc5ccccc5)c(S(=O)(=O)C(F)(F)F)c4)cc3)CC2)C1 [Navitoclax] (1000 nM) | 92.9% | 89.8% | 92.8% | 84.3% |  | -19.3% | 101% | 99.8% | 84.7%
CC(C)C[C@H](NC(=O)[C@@H](COC(C)(C)C)NC(=O)[C@H](Cc1ccc(O)cc1)NC(=O)[C@H](CO)NC(=O)[C@H](Cc1c[nH]c2ccccc12)NC(=O)[C@H](Cc1cnc[nH]1)NC(=O)[C@@H]1CCC(=O)N1)C(=O)N[C@@H](CCCNC(=N)N)C(=O)N1CCC[C@H]1C(=O)NNC(N)=O [Goserelin] (1000 nM) | 112% | 98.4% | 83.8% | 102% |  |  | 92.4% | 107% | 158%
Cn1cc(C2=C(c3cn(C4CCN(Cc5ccccn5)CC4)c4ccccc34)C(=O)NC2=O)c2ccccc21 [Enzastaurin] (10000 nM) | 111% | 120% | 121% |  | 94.4% | 113% | 94.4% | 108% | 138%
CC(O)(CS(=O)(=O)c1ccc(F)cc1)C(=O)Nc1ccc(C#N)c(C(F)(F)F)c1 (centres undefined) [Bicalutamide] (10000 nM) | 134% | 91.5% | 112% | 86% | 106% | 125% | 78.1% | 99% | 
